Assays:
Test in all cases: relative viability (nuclei count vs DMSO), 5 days (fraction); higher = more cells survive
17-AAG + Trametinib = compound: C=CCNC1=C2C[C@@H](C)C[C@H](OC)[C@H](O)[C@@H](C)/C=C(\C)[C@H](OC(N)=O)[C@@H](OC)/C=C\C=C(/C)C(=O)NC(=CC1=O)C2=O [17-AAG] + CC(=O)Nc1cccc(-n2c(=O)n(C3CC3)c(=O)c3c(Nc4ccc(I)cc4F)n(C)c(=O)c(C)c32)c1 [Trametinib] (partner 0.02 µM)
Outline: (§1)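 After 5 days of treatment, lung cancer cells in 1536-well plates were fixed and stained in a single step (final 0.05% Triton X-100, 1% formaldehyde, 1 ug/ml Hoechst) and their nuclei counted on 4× images. Treatment had been applied by pin tool the day after seeding as one drug alone or as a fixed anchor-drug dose with five library-drug doses (not always all listed) in √10 steps. Relative viability is the nuclei count of treated wells divided by that of vehicle wells, and values are medians of duplicate plates.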

17-AAG + Olaparib = compound: C=CCNC1=C2C[C@@H](C)C[C@H](OC)[C@H](O)[C@@H](C)/C=C(\C)[C@H](OC(N)=O)[C@@H](OC)/C=C\C=C(/C)C(=O)NC(=CC1=O)C2=O [17-AAG] + O=C(c1cc(Cc2n[nH]c(=O)c3ccccc23)ccc1F)N1CCN(C(=O)C2CC2)CC1 [Olaparib] (partner 8 µM)
Outline: as §1

17-AAG + Phenformin = compound: C=CCNC1=C2C[C@@H](C)C[C@H](OC)[C@H](O)[C@@H](C)/C=C(\C)[C@H](OC(N)=O)[C@@H](OC)/C=C\C=C(/C)C(=O)NC(=CC1=O)C2=O [17-AAG] + N=C(N)NC(=N)NCCc1ccccc1 [Phenformin] (partner 250 µM)
Outline: as §1

17-AAG = compound: C=CCNC1=C2C[C@@H](C)C[C@H](OC)[C@H](O)[C@@H](C)/C=C(\C)[C@H](OC(N)=O)[C@@H](OC)/C=C\C=C(/C)C(=O)NC(=CC1=O)C2=O [17-AAG]
Outline: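 Cells of lung cancer lines were placed in 1536-well plates and kept overnight at 37 °C. Pinning then delivered five library-drug doses (not always all listed), spaced by √10, onto plates anchored with vehicle, and the cells were left 5 days without changing medium. One step fixed, permeabilised and stained them with Hoechst, and MetaXpress counted nuclei in 4× images. Viability, as a median over plates, is treated-well nuclei divided by vehicle-well nuclei, with acceptance only at control CV below 25% and at least one doubling.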

Cell Line	relative viability (17-AAG + Trametinib; first compound 0.00128 µM)	relative viability (17-AAG + Trametinib; first compound 0.004048 µM)	relative viability (17-AAG + Trametinib; first compound 0.0128 µM)	relative viability (17-AAG + Trametinib; first compound 0.04048 µM)	relative viability (17-AAG + Trametinib; first compound 0.128 µM)	relative viability (17-AAG + Olaparib; first compound 0.00128 µM)	relative viability (17-AAG + Olaparib; first compound 0.004048 µM)	relative viability (17-AAG + Olaparib; first compound 0.0128 µM)	relative viability (17-AAG + Olaparib; first compound 0.04048 µM)	relative viability (17-AAG + Olaparib; first compound 0.128 µM)	relative viability (17-AAG + Phenformin; first compound 0.00128 µM)	relative viability (17-AAG + Phenformin; first compound 0.004048 µM)	relative viability (17-AAG + Phenformin; first compound 0.0128 µM)	relative viability (17-AAG + Phenformin; first compound 0.04048 µM)	relative viability (17-AAG + Phenformin; first compound 0.128 µM)	relative viability (17-AAG; 0.00128 µM)	relative viability (17-AAG; 0.004048 µM)	relative viability (17-AAG; 0.0128 µM)	relative viability (17-AAG; 0.04048 µM)	relative viability (17-AAG; 0.128 µM)
LCLC-97TM1	0.201	0.172	0.163	0.232	0.152	0.423	0.359	0.406	0.302	0.255	0.454	0.402	0.428	0.247	0.143	0.905	0.974	0.768	0.677	0.123
HARA	0.893	0.598	0.81	0.66	0.149	0.891	0.78	1.02	1.18	0.18	0.443	0.456	0.367	0.418	0.113	0.952	1.12	1	0.474	0.183
HCC-78	0.744	0.593	0.71	0.663	0.359	0.806	0.832	1.07	0.681	0.308	0.644	0.818	0.676	0.553	0.351	0.935	1.02	1.01	0.727	0.425
NCI-H1666	0.858	0.826	0.639	0.575	0.481	0.756	0.721	0.712	0.526	0.556	0.547	0.56	0.432	0.316	0.329	1.01	0.913	0.723	0.47	0.364
NCI-H2405	0.663	0.482	0.338	0.204	0.171	0.797	0.856	0.275	0.233	0.168	0.398	0.383	0.33	0.209	0.185	1.02	0.957	0.663	0.251	0.236
PC-14	0.619	0.111	0.0838	0.101	0.0786	0.298	0.132	0.0665	0.0524	0.0698	0.449	0.44	0.126	0.123	0.109	0.967	0.742	0.398	0.108	0.0843
NCI-H2023	0.557	0.266	0.0867	0.0826	0.0692	0.472	0.163	0.0796	0.0702	0.0752	0.416	0.226	0.0687	0.0792	0.0691	0.919	0.724	0.122	0.0716	0.0728
201T	0.778	0.729	0.688	0.702	0.682	0.843	0.857	0.849	0.802	0.748	0.484	0.391	0.341	0.244	0.248	0.953	0.976	0.936	0.425	0.316
NCI-H1915	0.293	0.302	0.23	0.103	0.0681	0.263	0.268	0.233	0.129	0.0621	0.358	0.372	0.308	0.106	0.0928	0.917	0.966	0.952	0.152	0.0877
NCI-H2009	0.276	0.269	0.252	0.218	0.0853	0.699	0.712	0.7	0.295	0.0798	0.499	0.43	0.481	0.412	0.128	0.961	0.995	0.93	0.894	0.274
BEN	1.07	1.16	1.31	1.07	0.613	1.06	1.03	1.01	0.666	0.358	0.268	0.26	0.222	0.197	0.167	1.01	1.1	1.11	0.829	0.36
PC-3 [JPC-3]	0.681	0.711	0.68	0.472	0.551	1.23	1.17	1.16	0.581	0.697	0.481	0.472	0.485	–	0.468	1.01	1.06	1.01	–	0.873
SK-MES-1	0.562	0.401	0.221	0.179	0.168	0.732	0.494	0.184	0.17	0.16	0.697	0.561	0.389	0.202	0.194	0.966	0.86	0.45	0.181	0.159
NCI-H838	0.536	0.487	0.126	0.115	0.1	0.768	0.591	0.139	0.128	0.133	0.543	0.327	0.118	0.132	0.0945	1.03	0.963	0.575	0.187	0.177
NCI-H1355	0.466	0.446	0.363	0.241	0.167	0.749	0.718	0.459	0.2	0.136	0.492	0.457	0.388	0.186	0.165	0.983	0.974	0.899	0.193	0.159
NCI-H1975	0.319	0.358	0.207	0.124	0.147	0.745	0.765	0.158	0.128	0.121	0.385	0.287	0.204	0.13	0.0987	0.909	0.889	0.372	0.16	0.167
LK-2	0.85	0.846	0.789	0.577	0.184	0.831	0.765	0.266	0.149	0.123	0.462	0.478	0.194	0.158	0.135	1.17	1	0.816	0.519	0.159
NCI-H727	0.356	0.409	0.319	0.237	0.221	0.619	0.737	0.696	0.707	0.386	0.535	0.445	0.475	0.287	0.277	0.989	0.922	0.858	0.5	0.344
NCI-H2342	0.8	0.799	0.79	0.631	0.7	0.506	0.4	0.487	0.437	0.374	0.562	0.792	0.554	0.398	0.379	0.951	1.01	1.01	0.78	0.428
HCC-366	0.399	0.389	0.0548	0.0372	0.0284	0.414	0.357	0.0266	0.0306	0.0265	0.653	0.591	0.159	0.0455	0.0292	1.02	1.04	0.49	0.0512	0.0477
HOP-62	0.396	0.35	0.355	0.191	0.167	0.445	0.411	0.22	0.171	0.0948	0.711	0.541	0.404	0.305	0.118	1.03	0.881	0.904	0.436	0.126
NCI-H1944	0.452	0.368	0.379	0.24	0.155	0.4	0.413	0.383	0.335	0.137	0.187	0.194	0.127	0.12	0.114	0.863	0.915	0.896	0.251	0.178
EBC-1	–	–	–	–	–	0.676	0.407	0.13	0.142	0.126	–	–	–	–	–	1.02	0.882	0.166	0.15	0.132
NCI-H1648	–	0.541	0.463	0.368	0.219	–	0.716	0.921	0.9	0.317	–	–	–	–	–	0.888	1.08	0.839	0.673	0.59
ABC-1	–	–	–	–	–	0.677	0.847	0.737	0.954	0.486	0.212	0.261	0.255	0.246	0.261	0.916	0.978	1.09	0.892	0.708
NCI-H1563	–	–	–	–	–	–	–	–	–	–	0.657	0.594	0.52	0.464	0.473	1.03	0.893	0.599	0.629	0.519
NCI-H1299	–	–	–	–	–	1.01	0.922	0.965	0.605	0.282	–	–	–	–	–	1.01	0.977	0.981	0.931	0.538
A549	–	–	–	–	–	0.336	0.338	0.0515	0.0272	0.0363	0.154	0.0295	0.0354	0.0477	0.03	0.948	0.86	0.115	0.0515	0.0401
IA-LM	–	–	–	–	–	0.89	0.919	0.68	0.179	0.0981	–	–	–	–	–	0.954	0.956	0.874	0.393	0.118
Calu-6	–	–	–	–	–	0.564	0.571	0.557	0.184	0.124	–	–	–	–	–	1.02	0.984	0.946	0.3	0.148
